Test results taken from US11058654B2, “Compositions and methods for the treatment of hemoglobinopathies and thalassemias” (AXCELLA HEALTH INC., priority 2018, dated 2021).

Tests used:
Assay type in all cases: cell-based, human
[1] = tested on: whole blood of healthy control donors; assay: Reactive oxygen species (DCF fluorescence, H2O2) in whole blood of healthy controls; settings: healthy control donors; treated with H2O2; dose-responsive
Method: (§1) Whole blood samples were appropriately diluted in Ca^2+- and Mg^2+-free Dulbecco's phosphate buffered saline (DPBS, Life Technologies) and the concentration of erythrocytes (RBC/ml) was measured on a Cellometer K2 Fluorescent Viability Cell Counter according to the manufacturer's RBC/AOPI protocol (Nexcelom Biosciences).
(§2) Cells were then diluted to 1*10^6 RBC/ml into either prewarmed 37° C. […] 2′-7′-dichlorofluorescin diacetate (DCF, Millipore Sigma), 20 mM in dimethyl sulfoxide (DMSO, Fisher) were added to a working concentration of 100 μM. Cells were incubated with dye for 15 minutes at 37° C., 5% CO2 in a tissue culture incubator, washed once, and resuspended in the 0.9 volumes of the same prewarmed 37° C. buffer with 5 minute spins at 500× g, accel/decal=5 in a swing arm centrifuge (Beckman Coulter). […] Where possible due to solubility constrains, pH-7.4-adjusted stock solutions of amino acids were used. Wells were mixed by pipetting and plates incubated at 37° C., 5% CO2 in a tissue culture incubator for 30 minutes. Optionally, 40 mM H2O2(Millipore Sigma) freshly prepared in the same buffer was added to bring the concentration to 2 mM, wells mixed by pipetting, and plates were incubated an additional 30, 60, 120, or 240 minutes before fluorescence measurement of ROS signal on a Synergy H4 (BioTek) microplate reader with excitation=488 nm and emission=530 nm, and gain either set to autogain, 75, or 100.

VCAM-1 = VCAM-1 cell integrated intensity in HLMVEC treated with TNFa; settings: 0.5 ng/mL TNFα; amino acids at 20×; 24 hours; in words
Source text: (§3) A VEC model was employed to assess the ability of amino acids to influence aspects of vascular dysfunction in SCD. TNFa treatment of healthy donor HLMVEC mimics the SCD disease state and induces expression of adhesion markers ICAM-1 and VCAM-1, and secretion of proinflammatory cytokine IL-6. It is established that levels of ICAM-1, VCAM-1, and IL-6 can contribute to SCD pathology and correlate with the incidence and severity of complications in SCD patients. The VEC model sought to test the ability of amino acids to reduce the TNFa-induced disease phenotype by lowering expression of adhesion markers (ICAM-1 and VCAM-1) and inflammatory cytokines (IL-6) while promoting VEC health and viability.
(§4) Primary Human Lung Microvascular Endothelial Cells (HLMVEC; Lonza) were seeded at 6,000 cells per well in Endothelial Cell Growth Basal Medium-2 (Lonza) supplemented with Fetal Bovine Serum (FBS; Lonza), human EGF (Lonza), human VEGF (Lonza), R3-Insulin-like Growth Factor-1 (Lonza), ascorbic acid (Lonza), hydrocortisone (Lonza), human FGF-beta (Lonza), and gentamicin/amphotericin-b (Lonza) in a 96-well plate (Thermo Fisher). The cells were incubated for 45 minutes at room temperature, then incubated overnight at 37° C./5% CO2.
Following overnight incubation, cell were washed once with 150 μL of Dulbecco's phosphate buffered saline (DPBS; Gibco), and then treated with Endothelial Basal Medium MCB-131 (amino acid, glucose, sodium pyruvate, and phenol red free; US Biologicals) containing a defined custom amino acid concentration based on physiological concentrations in blood of patients with SCD (thus recapitulating observed metabolic imbalances such as the depletion of certain essential amino acids including arginine and aspartate and enrichment of certain non-essential amino acids including glutamate and asparagine), dialyzed FBS (Hyclone), human EGF (Lonza), human VEGF (Lonza), R3-Insulin-like Growth Factor-1 (Lonza), ascorbic acid (Lonza), hydrocortisone (Lonza), human FGF-beta (Lonza), and gentamicin/amphotericin-b (Lonza), glucose, 10 mM HEPES, sodium pyruvate, and sodium bicarbonate supplemented with one of the following: • a. PBS (vehicle control), • b. 0.5 ng/mL Tumor Necrosis Factor alpha (TNFα) and PBS, or; • c. 0.5 ng/mL TNFα and amino acid treatments at 20× mean physiological concentrations in plasma based on values published in the Human Metabolome Database (HMDB) in PBS.
After 24 hours of treatment, cells were washed once with 150 μL of DPBS (Gibco), then fixed with 4% paraformaldehyde. […]
(§5) Antibody binding was detected by fluorescence microscopy using a high content imager (Molecular Devices). Images were analyzed using MetaXpress 6 software to determine the integrated intensity per cell for each wavelength corresponding to ICAM-1 or VCAM-1.

ICAM-1 = ICAM-1 cell integrated intensity in HLMVEC treated with TNFa; settings: 0.5 ng/mL TNFα; amino acids at 20×; 24 hours; in words
Source text: as §3
as §4, with “The cells were incubated for 45 minutes at room temperature, then incubated overnight at 37° C./5% CO2.” left out
as §5

[2] = tested on: sickle cell disease patient blood; assay: Reactive oxygen species (DCF fluorescence, H2O2) in sickle cell disease patient blood; settings: treated with H2O2 and untreated in DPBS
Method: as §1, §2

SMILES: CC(=O)N[C@@H](CS)C(=O)O [N-Acetyl Cysteine, N-acetylcysteine]
- ROS measured in whole blood [1]: reduced ROS
- VCAM-1 expression in HLMVEC (VCAM-1): greatly reduced
- TNF-α induced ICAM-1 expression levels in HLMVEC (ICAM-1): reduced levels of ICAM-1 expression to a lesser extent
- ROS measured in whole blood [2]: reduced ROS
